Measurements as given in article PMC5537074 (Journal of medicinal chemistry, 2017).
One block for each compound: values may come before it.

What was measured:
[1] = system: PPARγ; conditions: as compared to rosiglitazone; cited from earlier work
[2] = system: cultured cells (adipocyte differentiation); conditions: cultured cells treated with compound; cited from earlier work
[3] = system: T2DM patients; conditions: cited from earlier work
[4] = system: rodents; conditions: cited from earlier work
[5] = target: T1, human GAL4-PPARγ-Hinge-LBD (Homo sapiens, UniProt P37231); test: Transactivation assay; format: cell-based; conditions: HEK293T cells, GAL4-PPARγ-Hinge-LBD / UAS-luciferase, 18 h incubation, doses 169 pM to 10 μM
T1 sequence (P37231 238-503 limits assumed): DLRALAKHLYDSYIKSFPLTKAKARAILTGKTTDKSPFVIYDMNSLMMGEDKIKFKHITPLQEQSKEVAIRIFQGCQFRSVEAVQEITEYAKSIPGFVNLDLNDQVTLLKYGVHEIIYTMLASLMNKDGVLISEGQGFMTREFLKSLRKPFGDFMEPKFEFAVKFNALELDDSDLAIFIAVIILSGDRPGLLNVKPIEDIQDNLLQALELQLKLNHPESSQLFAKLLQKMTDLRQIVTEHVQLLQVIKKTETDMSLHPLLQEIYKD

Compound: O=S(=O)(Nc1cc(Cl)c(Oc2cnc3ccccc3c2)c(Cl)c1)c1ccc(Cl)cc1Cl [Compound 1, 2,4-dichloro-N-(3,5-dichloro-4-(quinolin-3-yloxy)phenyl)benzenesulfonamide]
- maximal transcriptional activation of reporter genes [1]: approximately 30%
- Adipocyte differentiation [2]: not enhanced
- pharmacokinetic and pharmacodynamic properties ([3]; Phase 1 studies (4 studies)): favorable pharmacokinetic and pharmacodynamic properties
- tolerability ([3]; Phase 2a, multicenter, double blind, placebo controlled, T2DM patients): generally well tolerated
- lowers blood glucose levels ([4]; 0.3 mg/kg dose): over 30%
- total weight gain, heart weight gain, lung weight gain ([4]; compared with rosiglitazone administration): less total weight gain, heart weight gain, and lung weight gain

- EC50 (nM) n=3 [5]: no activity
Compound: N-(3,5-dichloro-4-(quinolin-3-yloxy)phenyl)-thiophene-2-carboxamide [Compound 7]

- EC50 (nM) n=3 [5]: no activity
Compound: O=S(=O)(Nc1cc(Cl)c(Oc2cnc3ccccc3c2)c(Cl)c1)c1cccs1 [Compound 15, N-(3,5-dichloro-4-(quinolin-3-yloxy)phenyl)thiophene-2-sulfonamide]

Compound: CN(CCOc1ccc(CC2SC(=O)NC2=O)cc1)c1ccccn1 (stereo not drawn) [rosiglitazone]
- Adipocyte differentiation [2]: significant induction
